The values that follow are results of earlier work, collected in the CATMoS acute toxicity set (Mansouri et al. 2021).

This series can be described thus: rat acute oral toxicity. To be noted: in vivo.
As for `CCC1(CC)C(=O)NCC(C)C1=O` (stereo not drawn), the LD50 (in general, the dose expected to kill half of the subjects tested) is 860 mg/kg. Take `COP(=S)(OC(C)C)SCN1C(=O)c2ccccc2C1=O` (stereo not drawn): the LD50 is 50 mg/kg. With `NC(=S)Nc1cc(Cl)ccc1Cl`, the LD50 is 300 mg/kg.

Take `NCCNc1ccc(N)cc1`: the LD50 was 190 mg/kg. `Cc1ccc([N+](=O)[O-])cc1N`: the LD50 was 574 mg/kg. For `CC(C)=CC1CC(C)CCO1` (stereo not drawn), the LD50 was 4300 mg/kg. In the case of `O=CC(Br)(Br)Br`, the LD50 is 100 mg/kg. In the case of `O=C(O)Cn1c(=O)n(Cc2ccc(Br)cc2F)c(=O)c2ccc(Cl)cc21`, the LD50 is 4250 mg/kg. Turning to `Cc1cc(O)ccc1[N+](=O)[O-]`, the LD50 is 1200 mg/kg. As for `O=C(O)c1cc(-c2ccc(F)cc2F)ccc1O`, the LD50 is 392 mg/kg. As to `c1ccc2c(c1)CCCC2C1=NCCN1` (stereo not drawn), the LD50 was 785 mg/kg. Regarding `NC(N)=NCC1CCCCCCN1` (stereo not drawn), the 50% lethal dose (LD50) was 3550 mg/kg.

For the compound `O=C(O)c1cccnc1Nc1cccc(C(F)(F)F)c1`, the LD50 was 250 mg/kg.

On to `CCCCC(C)C(C)C(C)C(C)=O` (stereo not drawn), for which the median lethal dose (LD50) was 8470 mg/kg. For `OCCN(CCO)C1CCCCC1`, the median lethal dose (LD50) is 2600 mg/kg. For `CN(C)P(=O)(N(C)C)N(C)C`, the LD50 was 2650 mg/kg.

For `O=C(Nc1c(Cl)c(Cl)c(Cl)c2nc(C(F)(F)F)[nH]c12)c1ccccc1`, the LD50 was 100 mg/kg. For the compound `Nc1ccc(N=Nc2ccccc2)cc1`, the LD50 was 1250 mg/kg. In the case of `O[C@@H](c1cc(C(F)(F)F)nc2c(C(F)(F)F)cccc12)[C@H]1CCCCN1`, the LD50 is 880 mg/kg. Regarding `CCCCC(C)(C)CO`, the LD50 was 2200 mg/kg. For the compound `O=C(O)CNC(=O)c1ccc(Cl)cc1`, the 50% lethal dose (LD50) is 2230 mg/kg. With `CC(=O)OCC#N`, the 50% lethal dose (LD50) was 32 mg/kg. With `ClCCCCCCCl`, the LD50 was 2680 mg/kg.

`CC(=O)CO`: the LD50 was 2200 mg/kg. Regarding `O=C1CCCCC(=O)N1`, the median lethal dose (LD50) is 22600 mg/kg. As to `O=C(OCCN1CCCCC1)C(O)(c1ccccc1)c1ccccc1`, the LD50 is 1210 mg/kg. For the compound `Cc1cc([N+](=O)[O-])ccc1S(=O)(=O)NCCO`, the LD50 is 4470 mg/kg.

Regarding `O=[N+]([O-])c1cc[n+]([O-])cc1`, the LD50 is 107 mg/kg. In the case of `CC1COC(c2ccccc2)O1` (stereo not drawn), the LD50 is 3000 mg/kg. For `ClCC(Cl)(Cl)Cl`, the LD50 is 670 mg/kg. On to `CCOP(=S)(OCC)SC1CCSC1` (stereo not drawn), for which the LD50 was 20 mg/kg. With `Clc1cccc(N2CCNCC2)n1`, the LD50 was 174 mg/kg.

`C#CC(C)N(C)C(=O)Nc1ccc(Cl)cc1` (stereo not drawn): the LD50 was 1790 mg/kg. `CCC(C)c1cc([N+](=O)[O-])cc([N+](=O)[O-])c1OC(=O)OC(C)C` (stereo not drawn): the LD50 is 59 mg/kg. Take `COP(=S)(NC(C)C)Oc1ccc(C)cc1[N+](=O)[O-]` (stereo not drawn): the LD50 is 309 mg/kg.

Take `N#Cc1cc([N+](=O)[O-])ccc1N`: the median lethal dose (LD50) is 3880 mg/kg. On to `ClCCN1CCCC(C(c2ccccc2)c2ccccc2)C1` (stereo not drawn), for which the LD50 is 970 mg/kg. Consider `CCSc1nc(NC(C)C)nc(NC(C)C)n1`, for which the LD50 is 3900 mg/kg. Consider `CCOC1CCCCC1O` (stereo not drawn), for which the LD50 is 804 mg/kg. As to `CCCCC(CC)CNCC(CC)CCCC` (stereo not drawn), the 50% lethal dose (LD50) is 1640 mg/kg. Consider `C/C(=N\O)C(=O)c1ccccc1`, for which the LD50 is 4240 mg/kg. With `CC(C)CCCCCCCCCCOC(=O)c1ccccc1C(=O)OCCCCCCCCCCC(C)C`, the LD50 is 31400 mg/kg.

On to `Nc1ccc(Oc2ccc(N)cc2)cc1`, for which the LD50 was 725 mg/kg. For `CC(CN1C(=O)N(CC2CO2)C(C)(C)C1=O)OCC1CO1` (stereo not drawn), the LD50 is 1800 mg/kg. Turning to `CN1CCN(C)CC1`, the LD50 was 1120 mg/kg.

`COc1nc(C(F)(F)F)nc(=NC(O)=NS(=O)(=O)c2ccccc2C(F)(F)F)[nH]1`: the LD50 was 4700 mg/kg.

Take `O=c1nc[nH]c2c1ncn2[C@@H]1O[C@H](COP(=O)(O)OP(=O)(O)O)[C@@H](O)[C@H]1O`: the LD50 is 3790 mg/kg.

With `O=C1OCCO1`, the LD50 was 10000 mg/kg.

For `CCN(CCC#N)c1ccc(N=Nc2nc3ccc(S(C)(=O)=O)cc3s2)c(C)c1`, the LD50 is 400 mg/kg. As for `CCS(=O)CC(C)SP(=O)(OC)OC` (stereo not drawn), the LD50 was 89 mg/kg. On to `NCCCNCCNCCCN`, for which the LD50 was 1200 mg/kg. `C=CCCC(=O)O`: the 50% lethal dose (LD50) is 470 mg/kg. With `CC(=O)Nc1ccc2c(c1)OCO2`, the LD50 was 1000 mg/kg. With `CC1CN(CCCCCCCCNC(=O)Oc2ccc3c(c2)C2(C)CCN(C)C2N3C)CC(C)O1` (stereo not drawn), the LD50 is 56 mg/kg. For the compound `O=NN1CCN(N=O)CC1`, the LD50 was 160 mg/kg.

For the compound `CC(=O)O[C@H]1C[C@H](O[C@H]2[C@@H](OC=O)C[C@H](O[C@H]3[C@@H](OC=O)C[C@H](O[C@H]4CC[C@@]5(C)[C@H](CC[C@@H]6[C@@H]5CC[C@]5(C)[C@@H](C7=CC(=O)OC7)[C@@H](OC=O)C[C@]65O)C4)O[C@@H]3C)O[C@@H]2C)O[C@H](C)[C@H]1OC=O`, the LD50 is 39 mg/kg. Turning to `CN1CCCC(=C(c2cccs2)c2cccs2)C1`, the LD50 is 10000 mg/kg.

As to `COc1c(O)cc(Cl)c(Cl)c1Cl`, the LD50 is 2980 mg/kg. For the compound `CC=CC(C)C1(CC)C(=O)NC(=O)NC1=O` (stereo not drawn), the LD50 was 20 mg/kg. As for `C#CCCl`, the LD50 is 165 mg/kg. Turning to `Cc1ccc(NC2=NCCN2)c(Cl)c1`, the LD50 is 420 mg/kg. Consider `CCOP(=O)(OCC)SCn1nc(C)oc1=O`, for which the LD50 was 1 mg/kg. As to `Cc1ccc(N(C)C)cc1`, the LD50 is 1650 mg/kg.
